Key:
human CRF1 receptor = target: T1, human CRF1 receptor (Homo sapiens, UniProt P34998); assay: Measurement of CRF Binding Inhibitory Rate (receptor binding experiment with 125I-CRF); details: human CRF1 receptor expressing CHO cellular membrane fraction, 50 pM 125I-CRF, room temperature 1.5 hr, 0.05 nM to 10 μM of compound; read-out: IC50 values (CRF binding inhibition)
T1 construct: expressed in transfected cells; host or cells: CHO cells (membrane fraction)
T1 sequence (P34998 24-415): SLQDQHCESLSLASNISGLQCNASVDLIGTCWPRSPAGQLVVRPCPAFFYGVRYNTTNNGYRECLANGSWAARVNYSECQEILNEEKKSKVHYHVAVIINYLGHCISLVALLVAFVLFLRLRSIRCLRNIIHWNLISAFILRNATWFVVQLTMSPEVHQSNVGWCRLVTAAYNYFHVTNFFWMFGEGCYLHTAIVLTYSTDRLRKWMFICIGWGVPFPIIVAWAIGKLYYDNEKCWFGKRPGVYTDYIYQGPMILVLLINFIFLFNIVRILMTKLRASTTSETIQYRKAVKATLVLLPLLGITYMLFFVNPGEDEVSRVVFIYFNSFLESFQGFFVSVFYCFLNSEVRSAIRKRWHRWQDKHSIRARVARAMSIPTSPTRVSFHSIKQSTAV

Compound | melting point [°C] | IC50 (human CRF1 receptor) [nM]
CCC(O)(CC)c1ccc(Cl)c2nc3n(c12)CCCN3c1ccc(Cl)cc1C(F)(F)F [Example 128, 3-{9-Chloro-1-[4-chloro-2-(trifluoromethyl)phenyl]-1,2,3,4-tetrahydropyrimido[1,2-a]benzimidazol-6-yl}pentan-3-ol] | 178 to 180 | < 1000
CCCC(O)(CCC)c1ccc(Cl)c2nc3n(c12)CCCN3c1ccc(Cl)cc1C(F)(F)F [Example 129, 4-{9-Chloro-1-[4-chloro-2-(trifluoromethyl)phenyl]-1,2,3,4-tetrahydropyrimido[1,2-a]benzimidazol-6-yl}heptan-4-ol] | 200 to 202 | < 1000
CCC(CC)(OC)c1ccc(Cl)c2nc3n(c12)CCCN3c1ccc(Cl)cc1C(F)(F)F [Example 130, 9-Chloro-1-[4-chloro-2-(trifluoromethyl)phenyl]-6-(1-ethyl-1-methoxypropyl)-1,2,3,4-tetrahydropyrimido[1,2-a]benzimidazole] | 172 to 173 | < 1000
CCC(O)c1ccc(Cl)c2nc3n(c12)CCCN3c1ccc(Cl)cc1C(F)(F)F (stereo not drawn) [Example 131, 1-{9-Chloro-1-[4-chloro-2-(trifluoromethyl)phenyl]-1,2,3,4-tetrahydropyrimido[1,2-a]benzimidazol-6-yl}propan-1-ol] | 220 to 222 | < 1000
OC(c1ccc(Cl)c2nc3n(c12)CCCN3c1ccc(Cl)cc1C(F)(F)F)C1CC1 (stereo not drawn) [Example 132, {9-Chloro-1-[4-chloro-2-(trifluoromethyl)phenyl]-1,2,3,4-tetrahydropyrimido[1,2-a]benzimidazol-6-yl}(cyclopropyl)methanol] | 224 to 225 | < 1000
CCC(OC)c1ccc(Cl)c2nc3n(c12)CCCN3c1ccc(Cl)cc1C(F)(F)F (stereo not drawn) [Example 133, 9-Chloro-1-[4-chloro-2-(trifluoromethyl)phenyl]-6-(1-methoxypropyl)-1,2,3,4-tetrahydropyrimido[1,2-a]benzimidazole] | 202 to 203 | < 1000
COC(c1ccc(Cl)c2nc3n(c12)CCCN3c1ccc(Cl)cc1C(F)(F)F)C1CC1 (stereo not drawn) [Example 134, 9-Chloro-1-[4-chloro-2-(trifluoromethyl)phenyl]-6-[cyclopropyl(methoxy)methyl]-1,2,3,4-tetrahydropyrimido[1,2-a]benzimidazole] | 208 to 209 | < 1000
Cc1cc(Cl)cc(Cl)c1N1CCCn2c1nc1c(Cl)ccc(C(O)(C3CC3)C3CC3)c12 [Example 138, [9-Chloro-1-(2,4-dichloro-6-methylphenyl)-1,2,3,4-tetrahydropyrimido[1,2-a]benzimidazol-6-yl](dicyclopropyl)methanol] | 210 to 212 | < 1000
CCCC(O)(CCC)c1ccc(Cl)c2nc3n(c12)CCCN3c1c(C)cc(Cl)cc1Cl [Example 139, 4-[9-Chloro-1-(2,4-dichloro-6-methylphenyl)-1,2,3,4-tetrahydropyrimido[1,2-a]benzimidazol-6-yl]heptan-4-ol] | 176 to 178 | < 1000
CCCC(OC)c1ccc(Cl)c2nc3n(c12)CCCN3c1c(C)cc(Cl)cc1Cl (stereo not drawn) [Example 141, 9-Chloro-1-(2,4-dichloro-6-methylphenyl)-6-(1-methoxybutyl)-1,2,3,4-tetrahydropyrimido[1,2-a]benzimidazole] | 151 to 152 | < 1000
CCC(CO)c1ccc(Cl)c2nc3n(c12)CCCN3c1ccc(Cl)cc1Cl (stereo not drawn) [Example 147, 2-[9-Chloro-1-(2,4-dichlorophenyl)-1,2,3,4-tetrahydropyrimido[1,2-a]benzimidazol-6-yl]butan-1-ol] | 162 to 164 | < 1000
CC(C)(CO)c1ccc(Cl)c2nc3n(c12)CCCN3c1ccc(Cl)cc1Cl [Example 148, 2-[9-Chloro-1-(2,4-dichlorophenyl)-1,2,3,4-tetrahydropyrimido[1,2-a]benzimidazol-6-yl]-2-methylpropan-1-ol] | 176 to 177 | < 1000

— patent publication US8785460B2, “Tricyclic compounds and use thereof” (Takeda Pharmaceutical Company Limited, priority 2008, dated 2014)
